Measurements reported in US20240286998A1, “F[…], ANALOGUES THEREOF, AND METHODS USING SAME” (Saint Joseph's University, priority 2021, published 2024).
Structures can show the parent of a compound that is named as a salt. Where two headings read alike, the source gives them in different places.

How the values were obtained:
[1] = biological target: Serotonin 5-HT2A (human) (Homo sapiens (Human), UniProt P28223); test: 5-HT2A receptor binding, [3H]-ketanserin competition in membrane fractions; conditions: 1 nM [3H]-ketanserin, Cheng-Prusoff, N=1-3
[2] = biological target: 5-HT2A (Homo sapiens (Human), UniProt P28223); test: 5-HT2A Gq-mediated calcium flux functional assay; type: cell-based
[3] = biological target: 5-HT2B (Homo sapiens (Human), UniProt P41595); test: 5-HT2B Gq-mediated calcium flux functional assay; type: cell-based
[4] = biological target: 5-HT2C (Homo sapiens (Human), UniProt P28335); test: 5-HT2C Gq-mediated calcium flux functional assay; type: cell-based
[5] = biological target: 5-HT1A (Homo sapiens (Human), UniProt P08908); test: 5-HT1A Gi/o-mediated cAMP inhibition, GloSensor assay; type: cell-based; conditions: for 5-HT1A-cAMP Emax (% 5-HT): cAMP inhibition, 0.2 μM isoproterenol, IA = Inactive
[6] = test system: C57BL/6J mice; test: Head-Twitch Response (HTR) in mice; type: in vivo; conditions: C57BL/6J mice, ascending and descending arm dose
Experimental: Male C57BL/6J mice (6-8 weeks old) were obtained from Jackson Laboratories (Bar Harbor, ME) and housed in a vivarium at the University of California San Diego, an AAALAC-approved animal facility that meets all federal and state requirements for care and treatment of laboratory animals. All animal experiments were carried out in accordance with NIH guidelines and were approved by the UCSD Institutional Animal Care and Use Committee. Mice were housed up to four per cage in a climate-controlled room on a reverse-light cycle (lights on at 1900 h, off at 0700 h). Animals were provided with ad libitum access to food and water, with the exception of during behavioral testing.
Testing was conducted between 1000 and 1800 h. Head movements were recorded using a head-mounted magnet and a magnetometer coil as described in Halberstadt et al. (Psychopharmacology, 2013, 227(4):727-739). For the head mounted magnet, mice were anesthetized, an incision was made in the scalp, and a neodymium magnet was attached to the dorsal surface of the cranium using dental cement. Following a 2-week recovery period, behavioral experiments were conducted in a well-lit room. At least 7 days occurred between sessions to avoid any carryover effects. Test substances (i.e., dimethyltryptamine (DMT), diethyltryptamine (DET), psilocybin, 6-fluoro-diethyltryptamine (6-F-DET), compounds 3-4, 6, 9, 12-13, 22, 33, 41, 69, 88, 166, and 178) were administered intraperitoneally (IP) at a volume of 5 mL/kg. Mice were treated with vehicle (saline) or 6 doses of the test compound and then placed in a glass cylinder surrounded by a magnetometer coil and tested for 30 min. Coil voltage was filtered (1 kHz lowpass), digitized (20 kHz sampling rate) and saved to disk using a Powerlab/8SP with LabChart v 7.3.2 (ADInstruments, Colorado Springs, CO).
The entire 30 min recordings were examined for head twitches. Established procedures based on artificial intelligence were used to identify head twitches in the recordings (Scientific Reports, 2020, 10(1):1-12). HTR counts were analyzed using one-way analyses of variance (ANOVA), followed by post hoc pairwise comparisons between individual groups and vehicle using Dunnett's multiple comparisons test. […] Median effective doses (ED50 values) and 95% confidence intervals (95% CI) were calculated using nonlinear regression (Prism 9.0.2, GraphPad Software, San Diego, CA) (Table 4 and FIGS. 1-3).

[7] = IA = Inactive, N=1-3, read-out: 5-HT2A-Ca2+ FLUX pEC50 (converted)
[8] = IA = Inactive, N=1-3, read-out: 5-HT2C-Ca2+ FLUX pEC50 (converted)
[9] = IA = Inactive, N=1-3, read-out: 5-HT2B-Ca2+ FLUX pEC50 (converted)

Chain of 5-HT2B (P41595 whole entry): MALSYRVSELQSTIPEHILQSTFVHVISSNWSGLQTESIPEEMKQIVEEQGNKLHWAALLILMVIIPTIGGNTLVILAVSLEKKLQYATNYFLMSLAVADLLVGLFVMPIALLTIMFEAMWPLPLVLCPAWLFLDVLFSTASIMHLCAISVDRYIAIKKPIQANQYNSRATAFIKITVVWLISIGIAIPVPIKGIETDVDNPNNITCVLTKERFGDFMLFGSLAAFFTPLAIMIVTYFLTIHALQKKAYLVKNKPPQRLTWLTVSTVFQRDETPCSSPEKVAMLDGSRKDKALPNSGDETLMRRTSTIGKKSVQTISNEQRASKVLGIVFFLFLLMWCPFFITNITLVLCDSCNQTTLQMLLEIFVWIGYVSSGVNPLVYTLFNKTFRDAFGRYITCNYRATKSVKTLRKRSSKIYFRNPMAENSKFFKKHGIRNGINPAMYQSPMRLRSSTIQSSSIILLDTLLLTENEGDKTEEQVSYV
Chain of 5-HT2C (P28335 whole entry, looked up): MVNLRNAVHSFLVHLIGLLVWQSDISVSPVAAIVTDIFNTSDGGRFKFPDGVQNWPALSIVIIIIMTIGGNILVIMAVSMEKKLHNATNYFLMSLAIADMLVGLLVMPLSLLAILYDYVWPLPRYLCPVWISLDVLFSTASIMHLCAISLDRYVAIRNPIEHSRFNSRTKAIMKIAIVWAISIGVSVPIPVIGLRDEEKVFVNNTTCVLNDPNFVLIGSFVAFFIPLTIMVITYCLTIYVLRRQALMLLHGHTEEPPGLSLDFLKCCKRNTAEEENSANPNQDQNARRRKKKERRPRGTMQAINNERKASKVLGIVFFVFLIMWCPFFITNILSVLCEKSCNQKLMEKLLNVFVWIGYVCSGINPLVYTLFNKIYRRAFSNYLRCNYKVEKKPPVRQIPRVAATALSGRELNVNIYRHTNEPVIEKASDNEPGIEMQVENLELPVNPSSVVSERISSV

| Compound | 5-HT2A pKi ± SEM [1] | 5-HT2A-Ca2+ FLUX Emax (% 5-HT) ([2]; IA = Inactive, N=1-3) | 5-HT2B-Ca2+ FLUX Emax (% 5-HT) ([3]; IA = Inactive, N=1-3) | 5-HT2C-Ca2+ FLUX Emax (% 5-HT) ([4]; IA = Inactive, N=1-3) | EC50 [5] [nM] | 5-HT1A-cAMP Emax (% 5-HT) [5] [% 5-HT] | melting point [°C] | further results |
| --- | --- | --- | --- | --- | --- | --- | --- | --- |
| CCN(CCc1c[nH]c2ccc(F)cc12)C1CCC1 [compound 31, N-ethyl-N-(2-(5-fluoro-1H-indol-3-yl)ethyl)cyclobutanamine] | 6.26 ± 0.32 | 104.5 ± 1.8 | 96.5 ± 1.4 | 98.0 ± 1.9 | 22.4 | 100.7 ± 1.8 | 89.4 to 90.3 | EC50 [2]: 2.04 nM; EC50 [3]: 2.51 nM; EC50 [4]: 57.5 nM |
| CCCN(CC)CC(=O)c1c[nH]c2ccc(F)cc12 [compound 24, 2-(ethyl(propyl)amino)-1-(5-fluoro-1H-indol-3-yl)ethan-1-one] |  | 81.0 ± 2.4 |  |  | 0.49 | 20.5 ± 1.4 | 203.4 to 205.6 | EC50 [2, 7]: 1410 nM |
| CCN(CCc1c[nH]c2ccc(F)cc12)C(C)C [Example 1, N-ethyl-N-(2-(5-fluoro-1H-indol-3-yl)ethyl)propan-2-amine] | 5.95 ± 0.07 | 102.6 ± 0.8 | 100.0 ± 0.6 | 107.6 ± 2.3 | 589 | 86.4 ± 2.6 | 77.1 to 78.1 | EC50 [2]: 1.35 nM; EC50 [3]: 1.32 nM; EC50 [4]: 6.61 nM |
| CC(C)N(CCc1c[nH]c2ccc(F)cc12)C1CC1 [compound 168, N-(2-(5-fluoro-1H-indol-3-yl)ethyl)-N-isopropylcyclopropanamine] | 6.18 |  |  |  |  |  | 196.4 to 196.8 |  |
| CN1CCC[C@@H]1Cc1c[nH]c2ccc(F)cc12 [compound 28, (R)-5-fluoro-3-((1-methylpyrrolidin-2-yl)methyl)-1H-indole] | 7.19 ± 0.03 | 91.1 ± 2.5 | 90.8 ± 1.1 | 92.8 ± 0.9 | 72.4 | 101.20 ± 1.7 | 127.6 to 131.7 | EC50 [2]: 2.34 nM; EC50 [3]: 0.724 nM; EC50 [4]: 1.74 nM |
| CN1CC(c2c[nH]c3ccc(F)cc23)C1 [compound 29, 5-fluoro-3-(1-methylazetidin-3-yl)-1H-indole] | 6.30 |  |  | 28.5 ± 0.8 | 851 | 64.0 ± 3.5 | 119 to 122.8 | EC50 [4, 8]: 49 nM |
| CN(C)CCc1c[nH]c2ccccc12 [DMT, dimethyl tryptamine, reference compound] |  |  |  |  |  |  |  | Duration of HTR above baseline [6]: about 10 minutes |
| CCN(C)CCc1c[nH]c2c(F)c(F)c(F)cc12 [compound 164, N-ethyl-N-methyl-2-(5,6,7-trifluoro-1H-indol-3-yl)ethan-1-amine] | 6.90 ± 0.13 | 76.1 ± 1.1 | 33.2 ± 0.9 | 89.3 ± 1.3 |  |  | 212.1 to 212.5 | EC50 [2]: 6.46 nM; EC50 [3]: 6.17 nM; EC50 [4]: 18.6 nM |
| CN1CCC(c2c[nH]c3c(F)cccc23)C1 (centres unmarked) [compound 23, 7-fluoro-3-(1-methylpyrrolidin-3-yl)-1H-indole] | 6.43 | 41.8 ± 1.6 | 19.7 ± 0.8 | 26.6 ± 1.1 | 22.4 | 99.2 ± 1.7 | 129 to 132.1 | EC50 [2, 7]: 8.51 nM; EC50 [3, 9]: 4.37 nM; EC50 [4, 8]: 20.9 nM |
| CN1CCC(c2c[nH]c3ccc(F)cc23)C1 (centres unmarked) [compound 15, 5-fluoro-3-(1-methylpyrrolidin-3-yl)-1H-indole] | 6.98 |  |  |  |  |  | 122.8 to 125.1 |  |
| CN1CCC(c2c[nH]c3cc(F)c(F)cc23)C1 (centres unmarked) [compound 19, 5,6-difluoro-3-(1-methylpyrrolidin-3-yl)-1H-indole] | 6.92 | 53.3 ± 3.6 | 32.2 ± 2.2 | 70.5 ± 2.3 | 2950 | 113.3 ± 4.0 | 119.5 to 120.3 | EC50 [2, 7]: 3.89 nM; EC50 [3, 9]: 1.51 nM; EC50 [4, 8]: 3.63 nM |
| CN(CCc1c[nH]c2ccc(F)cc12)C1CCC1 [compound 51, N-(2-(5-fluoro-1H-indol-3-yl)ethyl)-N-methylcyclobutanamine] | 6.80 ± 0.02 |  |  |  |  |  | 219.4 to 219.7 |  |
| CCCN(CC)CCc1c[nH]c2c(F)c(F)c(F)cc12 (as salt: hydrochloride) [compound 165, N-ethyl-N-[2-(5,6,7-trifluoro-1H-indol-3-yl)ethyl]propan-1-amine] |  |  |  |  |  |  | 188 to 188.8 |  |
| CN1CCC[C@H]1Cc1c[nH]c2ccc(F)cc12 [compound 27, (S)-5-fluoro-3-((1-methylpyrrolidin-2-yl)methyl)-1H-indole] | 5.57 | 34.4 ± 2.3 | 35.3 ± 1.3 | 18.5 ± 0.7 | 562 | 88.2 ± 3.6 | 135 to 136.4 | EC50 [2]: 58.9 nM; EC50 [3]: 14.1 nM; EC50 [4]: 56.2 nM |
| CN(CCc1c[nH]c2ccc(F)cc12)C1CSC1 (as salt: HCl) [compound 20, N-(2-(5-fluoro-1H-indol-3-yl)ethyl)-N-methylthietan-3-amine] |  |  |  |  |  |  | 221 to 223.3 |  |
| CCCN(CC)CCc1c[nH]c2ccc(F)c(F)c12 (as salt: fumarate) [compound 21, N-(2-(4,5-difluoro-1H-indol-3-yl)ethyl)-N-ethylpropan-1-amine] |  |  |  |  |  |  | 182.1 to 183.3 |  |
| CCCN(CCc1c[nH]c2c(F)cccc12)C1CCC1 (as salt: hydrochloride) [compound 162, N-(2-(7-fluoro-1H-indol-3-yl)ethyl)-N-propylcyclobutanamine] |  |  |  |  |  |  | 231.7 to 237.2 |  |
| CN(CCc1c[nH]c2ccc(F)cc12)C1CC1 (as salt: hydrochloride) [compound 160, N-(2-(5-fluoro-1H-indol-3-yl)ethyl)-N-methylcyclopropanamine] |  |  |  |  |  |  | 218.8 to 219.3 |  |
| CC(C)CN(C)CCc1c[nH]c2ccc(F)cc12 (as salt: hydrochloride) [compound 39, N-(2-(5-fluoro-1H-indol-3-yl)ethyl)-N,2-dimethylpropan-1-amine] |  |  |  |  |  |  | 150 to 151.5 |  |
